In patent US6822100B2 (Bristol-Myers Squibb Company, priority 2001, dated 2004):

Experiments:
[1] = target: T1, recombinant human dopamine D2L receptors (Homo sapiens, UniProt P14416); experiment: Dopamine Binding Assay; conditions: HEK-D2L cell membranes, 150 pM [3H]-spiperone, Cheng and Prusoff
T1 construct: expressed in transfected cells; host or cells: HEK-293 (HEK-D2L), membrane homogenates
Description: HEK-293 cells that stably express recombinant human dopamine D2L receptors (HEK-D2L cells) were grown at 37° C. in 5% CO2 as a monolayer in medium consisting of EMEM supplemented with 10% fetal bovine serum and G418 sulfate (500 μg/ml). To prepare membranes for radioligand binding experiments, cells were rinsed twice with phosphate-buffered saline (138 mM NaCl, 4.1 mM KCl, 5.1 mM Na2PO4, 1.5 mM KH2PO2 11.1 mM glucose, pH 7.4), and incubated for 5-10 min. at 4° C. in hypotonic lysis buffer consisting of 10 mM Tris (pH 7.4) and 5 mM EDTA. Cells were transferred from plates to polypropylene tubes (16×100 mm), homogenized and centrifuged at 32,000×g for 20 min. Following centrifugation, pellets were resuspended by homogenization in buffer consisting of 50 mM Tris (pH 7.7 at 25° C.) and 1 mM EDTA. Homogenates were stored at −80° C. until needed. On the day of an experiment, homogenates were thawed then centrifuged at 32,000×g for 20 min. Following centrifugation, supernatants were discarded and pellets were resuspended in assay buffer consisting of 50 mM Tris (pH 7.4 at 25° C.), 1 mM EDTA and 6 mM MgCl2. Membrane homogenates (˜5 μg) were incubated with 150 pM [^3H]-spiperone (Amersham Life Science) and increasing concentrations of test compounds for 1.5 hr at 22° C. in a total volume of 400 μl. Reactions were stopped by addition of ice-cold assay buffer and filtration over glass fiber filters (Whatman GFB, pre-soaked in 0.05% polyethylenimine) using a microtitre format Brandel cell harvester. Filters were washed with 3 ml of ice-cold assay buffer. Non-specific binding was defined with 2 μM (+)butaclamol. Ki values were calculated using the method of Cheng and Prusoff (1973). Protein concentrations were determined by the method of Bradford (1976) with BSA as a standard.

[2] = target: T2, human serotonin transporters (Homo sapiens, UniProt P31645); experiment: Serotonin Transporter Binding Assay; conditions: HEK-hSERT cell membranes, 1 nM [3H]-citalopram, Cheng and Prusoff; read-out: SERT Ki
T2 construct: expressed in transfected cells; host or cells: HEK-293 (HEK-hSERT), membrane homogenates
T2 sequence (P31645 whole entry): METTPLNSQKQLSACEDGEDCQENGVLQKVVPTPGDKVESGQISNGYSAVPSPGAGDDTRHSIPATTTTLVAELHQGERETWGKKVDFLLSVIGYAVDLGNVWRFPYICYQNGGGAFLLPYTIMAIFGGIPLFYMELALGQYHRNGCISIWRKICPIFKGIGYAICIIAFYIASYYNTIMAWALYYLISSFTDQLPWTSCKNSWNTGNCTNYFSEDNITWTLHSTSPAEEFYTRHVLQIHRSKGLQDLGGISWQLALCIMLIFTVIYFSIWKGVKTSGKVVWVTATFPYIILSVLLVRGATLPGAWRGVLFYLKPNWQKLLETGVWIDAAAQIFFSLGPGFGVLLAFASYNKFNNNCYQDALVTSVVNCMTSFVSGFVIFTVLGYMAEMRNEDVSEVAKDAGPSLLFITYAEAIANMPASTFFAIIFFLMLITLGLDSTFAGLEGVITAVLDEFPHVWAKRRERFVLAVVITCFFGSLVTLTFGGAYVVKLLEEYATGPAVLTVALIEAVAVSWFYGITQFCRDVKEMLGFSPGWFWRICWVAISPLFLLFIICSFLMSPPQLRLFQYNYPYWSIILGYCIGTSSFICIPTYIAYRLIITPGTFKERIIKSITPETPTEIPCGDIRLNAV
Description: HEK-293 cells that stably express human serotonin transporters (HEK-hSERT cells) were grown at 37° C. in 5% CO2 as a monolayer in medium consisting of EMEM supplemented with 10% fetal bovine serum and G418 sulfate (500 μg/ml). To prepare membranes for radioligand binding experiments, cells were rinsed twice with phosphate-buffered saline (138 mM NaCl, 4.1 mM KCl, 5.1 mM Na2PO4, 1.5 mM […], 11.1 mM glucose, pH 7.4). Cells were transferred from plates to polypropylene tubes (16×100 mm), centrifuged at 1,200×g for 5 min and were frozen at −80° C. until assay. Following centrifugation, pellets were resuspended by homogenization in buffer consisting of 50 mM Tris (pH 7.7 at 25° C.), 120 mM NaCl and 5 mM KCl and then centrifuged at 32,000×g for 10 min. Following centrifugation, supernatants were discarded and pellets were resuspended in buffer consisting of 50 mM Tris (pH 7.4 at 25° C.), 150 mM NaCl and 5 mM KCl. Membrane homogenates (200 μl/plate) were incubated with 1 nM [^3H]-citalopram (specific activity=85 Ci/mmol) and increasing concentrations of test compounds for 1 hr at 25° C. in a total volume of 250 μl. The assay buffer consisted of 50 mM Tris (pH 7.4 at 25° C.), 120 mM NaCl and 5 mM KCl (pH 7.4 with conc. HCl). Plates were incubated for 1 hr at 25° C., then filtered through 0.5% PEI treated Whatman GF/B filters using a Brandel cell harvester. Filters were washed three times with 3 ml of ice-cold tris wash buffer. Non-specific binding was defined with 10 μM fluoxetine. Amount of radioligand bound in the presence and absence of competitor was analyzed by plotting (−)log drug concentration versus the amount of radioligand specifically bound. The midpoint of the displacement curve (IC50, nM), signifies the potency. Ki values were calculated using the method of Cheng and Prusoff (1973).

T1 sequence (P14416 whole entry): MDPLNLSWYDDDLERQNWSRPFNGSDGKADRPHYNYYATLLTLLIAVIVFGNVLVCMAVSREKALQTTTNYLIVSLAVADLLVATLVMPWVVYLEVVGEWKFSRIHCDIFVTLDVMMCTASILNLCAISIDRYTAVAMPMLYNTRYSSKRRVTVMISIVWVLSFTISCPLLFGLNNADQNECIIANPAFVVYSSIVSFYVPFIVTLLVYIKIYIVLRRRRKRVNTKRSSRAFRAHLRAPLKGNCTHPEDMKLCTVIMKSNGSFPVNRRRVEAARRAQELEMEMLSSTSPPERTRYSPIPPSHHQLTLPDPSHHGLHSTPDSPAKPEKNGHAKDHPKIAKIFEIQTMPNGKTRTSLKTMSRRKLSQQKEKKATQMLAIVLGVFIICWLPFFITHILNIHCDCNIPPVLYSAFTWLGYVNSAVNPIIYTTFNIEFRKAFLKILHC

Row | Ki [1] | Ki [2] | SMILES
1 | > 1000 nM | 1 to 10 nM | CCCOC(=O)NCCN(C)C[C@@H]1C[C@H]1c1c[nH]c2ccc(C#N)cc12 (relative stereo) [Example 88, trans-2-[5-Cyanoindol-3-yl]-1-[N,N-methyl-2-amino(propylcarbamoyl)ethylaminomethyl]-cyclopropane]
2 | > 1000 nM | 1 to 10 nM | COC(=O)NCCCN(C)C[C@@H]1C[C@H]1c1c[nH]c2ccc(C#N)cc12 (relative stereo) [Example 89, trans-2-[5-Cyanoindol-3-yl]-1-[N,N-methyl-2-amino(methylcarbamoyl)propylaminomethyl]-cyclopropane]
3 | 100 to 1000 nM | 1 to 10 nM | CCOC(=O)NCCCN(C)C[C@@H]1C[C@H]1c1c[nH]c2ccc(C#N)cc12 (relative stereo) [Example 90, trans-2-[5-Cyanoindol-3-yl]-1-[N,N-methyl-2-amino(ethylcarbamoyl)propylaminomethyl]-cyclopropane]
4 | 10 to 100 nM | 1 to 10 nM | CCCOC(=O)NCCCN(C)C[C@@H]1C[C@H]1c1c[nH]c2ccc(C#N)cc12 (relative stereo) [Example 91, trans-2-[5-Cyanoindol-3-yl]-1-[N,N-methyl-2-amino(propylcarbamoyl)propylaminomethyl]-cyclopropane]
5 | > 1000 nM | 1 to 10 nM | CCN(CCNC(=O)OC)C[C@@H]1C[C@H]1c1c[nH]c2ccc(C#N)cc12 (relative stereo) [Example 93, trans-2-[5-Cyanoindol-3-yl]-1-[N,N-ethyl-2-amino(methylcarbamoyl)ethylaminomethyl]-cyclopropane]
6 | > 1000 nM | < 1 nM | CCOC(=O)NCCN(CC)C[C@@H]1C[C@H]1c1c[nH]c2ccc(C#N)cc12 (relative stereo) [Example 94, trans-2-[5-Cyanoindol-3-yl]-1-[N,N-ethyl-2-amino(ethylcarbamoyl)ethylaminomethyl]-cyclopropane]
7 | > 1000 nM | 1 to 10 nM | CCCOC(=O)NCCN(CC)C[C@@H]1C[C@H]1c1c[nH]c2ccc(C#N)cc12 (relative stereo) [Example 95, trans-2-[5-Cyanoindol-3-yl]-1-[N,N-ethyl-2-amino(propylcarbamoyl)ethylaminomethyl]-cyclopropane]
8 | 100 to 1000 nM | 1 to 10 nM | CCN(CCNC(=O)OC(C)C)C[C@@H]1C[C@H]1c1c[nH]c2ccc(C#N)cc12 (relative stereo) [Example 96, trans-2-[5-Cyanoindol-3-yl]-1-[N,N-ethyl-2-amino(isopropylcarbamoyl)ethylaminomethyl]-cyclopropane]
9 | 100 to 1000 nM | 1 to 10 nM | CCN(CCCNC(=O)OC)C[C@@H]1C[C@H]1c1c[nH]c2ccc(C#N)cc12 (relative stereo) [Example 97, trans-2-[5-Cyanoindol-3-yl]-1-[N,N-ethyl-2-amino(methylcarbamoyl)propylaminomethyl]-cyclopropane]
10 | 100 to 1000 nM | 1 to 10 nM | CCOC(=O)NCCCN(CC)C[C@@H]1C[C@H]1c1c[nH]c2ccc(C#N)cc12 (relative stereo) [Example 98, trans-2-[5-Cyanoindol-3-yl]-1-[N,N-ethyl-2-amino(ethylcarbamoyl)propylaminomethyl]-cyclopropane]
11 | 100 to 1000 nM | 1 to 10 nM | CCCOC(=O)NCCCN(CC)C[C@@H]1C[C@H]1c1c[nH]c2ccc(C#N)cc12 (relative stereo) [Example 99, trans-2-[5-Cyanoindol-3-yl]-1-[N,N-ethyl-2-amino(propylcarbamoyl)propylaminomethyl]-cyclopropane]
12 | > 1000 nM | 10 to 100 nM | CCN(CCCNC(=O)OC(C)C)C[C@@H]1C[C@H]1c1c[nH]c2ccc(C#N)cc12 (relative stereo) [Example 100, trans-2-[5-Cyanoindol-3-yl]-1-[N,N-ethyl-2-amino(isopropylcarbamoyl)propylaniinomethyl]-cyclopropane]
13 | 100 to 1000 nM | 1 to 10 nM | CCCOC(=O)NCCN(C)C[C@@H]1C[C@H]1c1c[nH]c2ccc(F)cc12 (relative stereo) [Example 102]
14 | 100 to 1000 nM | 1 to 10 nM | CC(C)OC(=O)NCCN(C)C[C@@H]1C[C@H]1c1c[nH]c2ccc(F)cc12 (relative stereo) [Example 103]
15 | 100 to 1000 nM | 10 to 100 nM | COC(=O)NCCCN(C)C[C@@H]1C[C@H]1c1c[nH]c2ccc(F)cc12 (relative stereo) [Example 104, trans-2-[5-Fluoroindol-3-yl]-1-[N,N-methyl-2-amino(methylcarbamoyl)propylaminomethyl]-cyclopropane]
16 | 100 to 1000 nM | 10 to 100 nM | CCOC(=O)NCCCN(C)C[C@@H]1C[C@H]1c1c[nH]c2ccc(F)cc12 (relative stereo) [Example 105, trans-2-[5-Fluoroindol-3-yl]-1-[N,N-methyl-2-amino(ethylcarbamoyl)propylaminomethyl]-cyclopropane]
17 | 100 to 1000 nM | 10 to 100 nM | CCCOC(=O)NCCCN(C)C[C@@H]1C[C@H]1c1c[nH]c2ccc(F)cc12 (relative stereo) [Example 106, trans-2-[5-Fluoroindol-3-yl]-1-[N,N-methyl-2-amino(propylcarbamoyl)propylaminomethyl]-cyclopropane]
18 | 100 to 1000 nM | 10 to 100 nM | CC(C)OC(=O)NCCCN(C)C[C@@H]1C[C@H]1c1c[nH]c2ccc(F)cc12 (relative stereo) [Example 107, trans-2-[5-Fluoroindol-3-yl]-1-[N,N-methyl-2-amino(isopropylcarbamoyl)propylaminomethyl]-cyclopropane]
19 | 100 to 1000 nM | 10 to 100 nM | CCN(CCNC(=O)OC)C[C@@H]1C[C@H]1c1c[nH]c2ccc(F)cc12 (relative stereo) [Example 108, trans-1-[N,N-Ethyl-2-amino(methylcarbamoyl)ethylaminomethyl]-2-[5-fluoroindol-3-yl]-cyclopropane]
20 | 100 to 1000 nM | 1 to 10 nM | CCOC(=O)NCCN(CC)C[C@@H]1C[C@H]1c1c[nH]c2ccc(F)cc12 (relative stereo) [Example 109]
21 | 100 to 1000 nM | 1 to 10 nM | CCCOC(=O)NCCN(CC)C[C@@H]1C[C@H]1c1c[nH]c2ccc(F)cc12 (relative stereo) [Example 110, trans-1-[N,N-Ethyl-2-amino(propylcarbamoyl)ethylaminomethyl]-2-[5-fluoroindol-3-yl]-cyclopropane]
22 | 10 to 100 nM | 1 to 10 nM | CCN(CCNC(=O)OC(C)C)C[C@@H]1C[C@H]1c1c[nH]c2ccc(F)cc12 (relative stereo) [Example 111]
23 | 100 to 1000 nM | 10 to 100 nM | CCN(CCCNC(=O)OC)C[C@@H]1C[C@H]1c1c[nH]c2ccc(F)cc12 (relative stereo) [Example 112, trans-1-[N,N-Ethyl-2-amino(methylcarbamoyl)propylaminomethyl]-2-[5-fluoroindol-3-yl]-cyclopropane]
24 | 100 to 1000 nM | 10 to 100 nM | CCOC(=O)NCCCN(CC)C[C@@H]1C[C@H]1c1c[nH]c2ccc(F)cc12 (relative stereo) [Example 113]
25 | 100 to 1000 nM | 10 to 100 nM | CCCOC(=O)NCCCN(CC)C[C@@H]1C[C@H]1c1c[nH]c2ccc(F)cc12 (relative stereo) [Example 114, trans-1-[N,N-Ethyl-2-amino(propylcarbamoyl)propylaminomethyl]-2-[5-fluoroindol-3-yl]-cyclopropane]
